Laboratory results taken from EP0549857A1, “Antibacterial quinolone carboxylic acid derivatives” (KOREA RESEARCH INSTITUTE OF CHEMICAL TECHNOLOGY, priority 1991, dated 1993).
Converted amounts (≈) assume the structure as drawn. Like-named read-outs stand apart in the source and are kept apart here.

Tests used:
[1] = test system: Pseudomonas aeruginosa 1771; test: In vitro anti-bacterial activity test (MIC, two-fold agar dilution); type: cell-based; conditions: Pseudomonas aeruginosa 1771; Mueller-Hinton agar, 10⁷ CFU/mℓ, 37°C, 18 hours; read-out: MIC
[2] = test system: Staphylococcus aureus 503; test: as above; type: cell-based; conditions: Staphylococcus aureus 503; Mueller-Hinton agar, 10⁷ CFU/mℓ, 37°C, 18 hours; read-out: MIC
Escherichia coli O 55 = test: as above; type: cell-based; conditions: O55, Mueller-Hinton agar, 10⁷ CFU/mℓ, 37°C, 18 hours, read-out: MIC
[3] = test system: Staphylococcus aureus SG 511; test: as above; type: cell-based; conditions: SG511; Staphylococcus aureus SG 511; Mueller-Hinton agar, 10⁷ CFU/mℓ, 37°C, 18 hours; read-out: MIC
[4] = test system: Streptococcus pyogenes 77A; test: as above; type: cell-based; conditions: Streptococcus pyogenes 77A; Mueller-Hinton agar, 10⁷ CFU/mℓ, 37°C, 18 hours; read-out: MIC
Salmonella typhimurium = test: as above; type: cell-based; conditions: Salmonella enterica, Mueller-Hinton agar, 10⁷ CFU/mℓ, 37°C, 18 hours, read-out: MIC
[5] = test system: Pseudomonas aeruginosa 9027; test: as above; type: cell-based; conditions: Pseudomonas aeruginosa 9027; Mueller-Hinton agar, 10⁷ CFU/mℓ, 37°C, 18 hours; read-out: MIC
[6] = test system: Klebsiella aerogenes 1082E; test: as above; type: cell-based; conditions: Mueller-Hinton agar, 10⁷ CFU/mℓ, 37°C, 18 hours, read-out: MIC
Escherichia coli DC 2 = test: as above; type: cell-based; conditions: DC2, Mueller-Hinton agar, 10⁷ CFU/mℓ, 37°C, 18 hours, read-out: MIC
Escherichia coli DC 0 = test: as above; type: cell-based; conditions: DC0, Mueller-Hinton agar, 10⁷ CFU/mℓ, 37°C, 18 hours, read-out: MIC
[7] = test system: Pseudomonas aeruginosa 1771M; test: as above; type: cell-based; conditions: 18 h
Enterobacter cloacae P99 = test: as above; type: cell-based; conditions: Mueller-Hinton agar, 10⁷ CFU/mℓ, 37°C, 18 hours, read-out: MIC
Escherichia coli OTEM = test: as above; type: cell-based; conditions: Mueller-Hinton agar, 10⁷ CFU/mℓ, 37°C, 18 hours, read-out: MIC
[8] = test system: Streptococcus pyogenes 308A; test: as above; type: cell-based; conditions: Mueller-Hinton agar, 10⁷ CFU/mℓ, 37°C, 18 hours, read-out: MIC
Escherichia coli 1507E = test: as above; type: cell-based; conditions: Mueller-Hinton agar, 10⁷ CFU/mℓ, 37°C, 18 hours, read-out: MIC
[9] = test system: Staphylococcus aureus 285; test: as above; type: cell-based; conditions: Staphylococcus aureus 285; Mueller-Hinton agar, 10⁷ CFU/mℓ, 37°C, 18 hours; read-out: MIC
[10] = test system: Pseudomonas aeruginosa 1592E; test: as above; type: cell-based; conditions: Mueller-Hinton agar, 10⁷ CFU/mℓ, 37°C, 18 hours, read-out: MIC
[11] = test system: Klebsiella aerogenes 1522E; test: as above; type: cell-based; conditions: Mueller-Hinton agar, 10⁷ CFU/mℓ, 37°C, 18 hours, read-out: MIC
[12] = test system: Streptococcus faecium MD 8b; test: as above; type: cell-based; conditions: Enterococcus faecium, MD8B; Streptococcus faecium MD 8b; Mueller-Hinton agar, 10⁷ CFU/mℓ, 37°C, 18 hours; read-out: MIC
[13] = test system: Enterobacter cloacae 1321E; test: as above; type: cell-based; conditions: Mueller-Hinton agar, 10⁷ CFU/mℓ, 37°C, 18 hours, read-out: MIC
S. aureus 17740 = test: Preventive effect on the systemic infection; type: in vivo; conditions: Staphylococcus aureus, 17740, in Mus musculus, S. aureus 17740 intraperitoneal infection, NMRI mice, survival on day 7, probit analysis, read-out: ED₅₀
Description: (§1) 10 fold of the pathogen which leads to 100% lethality were injected intraperitoneally to male and female NMRI mice weighing 18 to 20g. Immediately and after 4 hours, the dose of test compounds which was determined by two-fold serial dilution method was administered orally or subcutaneously; and on day 7, the effectiveness was evaluated in terms of ED₅₀ calculated from the number of survived mice by the probit analysis.

P. mirabilis = test: Preventive effect on the systemic infection; type: in vivo; conditions: Proteus mirabilis, in Mus musculus, P. mirabilis intraperitoneal infection, NMRI mice, survival on day 7, probit analysis, read-out: ED₅₀
Description: as §1

[14] = Oral Administration immediately and after 4 hours
[15] = Subcutaneous Injection immediately and after 4 hours

Row | SMILES | MIC [1] | MIC [2] | MIC (Escherichia coli O 55) | MIC [3] | MIC [4] | MIC (Salmonella typhimurium) | MIC [5] | MIC [6] | MIC (Escherichia coli DC 2) | MIC (Escherichia coli DC 0) | MIC [7] | MIC (Enterobacter cloacae P99) | MIC (Escherichia coli OTEM) | MIC [8] | MIC (Escherichia coli 1507E) | MIC [9] | MIC [10] | MIC [11] | MIC [12] | MIC [13] | also measured
1 | NC1CCCC2=C1CN(c1c(F)cc3c(=O)c(C(=O)O)cn(C4CC4)c3c1F)C2 (stereo not shown) [Example 9, 7-[6-amino-3-azabicyclo[4,3,0]non-1(5)ene-3-yl]-1-cyclopropyl-6,8-difluoro-1,4-dihydro-4-oxoquinoline-3-carboxylic acid] | 3.12 µg/mL (≈ 7.78 µM) | 0.098 µg/mL (≈ 0.244 µM) | 0.049 µg/mL (≈ 0.122 µM) | 0.098 µg/mL (≈ 0.244 µM) | 0.098 µg/mL (≈ 0.244 µM) | 0.013 µg/mL (≈ 0.0324 µM) | 3.12 µg/mL (≈ 7.78 µM) | 0.195 µg/mL (≈ 0.486 µM) | 0.195 µg/mL (≈ 0.486 µM) | 0.781 µg/mL (≈ 1.95 µM) | 0.781 µg/mL (≈ 1.95 µM) | 0.049 µg/mL (≈ 0.122 µM) | 0.098 µg/mL (≈ 0.244 µM) | 0.391 µg/mL (≈ 0.974 µM) | 0.098 µg/mL (≈ 0.244 µM) | 0.098 µg/mL (≈ 0.244 µM) | 3.12 µg/mL (≈ 7.78 µM) | 0.195 µg/mL (≈ 0.486 µM) | 0.098 µg/mL (≈ 0.244 µM) |  | 
2 | CNC1CCC2=C1CN(c1c(F)c(N)c3c(=O)c(C(=O)O)cn(C4CC4)c3c1F)C2 (stereo not shown) [Example 11, 7-[6-methylamino-3-azabicyclo[3,3,0]oct-1(5)ene-3-yl]-5-amino-1-cyclopropyl-6,8-difluoro-1,4-dihydro-4-oxoquinoline-3-carboxylic acid] | 3.12 µg/mL (≈ 7.5 µM) | 0.049 µg/mL (≈ 0.118 µM) | 0.025 µg/mL (≈ 0.06 µM) | 0.195 µg/mL (≈ 0.468 µM) | 0.195 µg/mL (≈ 0.468 µM) | 0.098 µg/mL (≈ 0.235 µM) | 3.12 µg/mL (≈ 7.5 µM) | 0.007 µg/mL (≈ 0.0168 µM) | 0.049 µg/mL (≈ 0.118 µM) | 1.56 µg/mL (≈ 3.75 µM) | 1.56 µg/mL (≈ 3.75 µM) | 0.195 µg/mL (≈ 0.468 µM) | 0.049 µg/mL (≈ 0.118 µM) | 0.391 µg/mL (≈ 0.939 µM) | 0.098 µg/mL (≈ 0.235 µM) | 0.049 µg/mL (≈ 0.118 µM) | 3.12 µg/mL (≈ 7.5 µM) | 0.195 µg/mL (≈ 0.468 µM) | 0.195 µg/mL (≈ 0.468 µM) | 0.049 µg/mL (≈ 0.118 µM) | 
3 | CNC1CCC2=C1CN(c1nc3c(cc1F)c(=O)c(C(=O)O)cn3C1CC1)C2 (stereo not shown) [Example 15, 7-[6-methylamino-3-azabicyclo[3,3,0]oct-1(5)ene-3-yl]-1-cyclopropyl-6-fluoro-1,4-dihydro-4-oxo-1,8-naphthyridine-3-carboxylic acid] | 3.12 µg/mL (≈ 8.13 µM) | 0.098 µg/mL (≈ 0.255 µM) | 0.049 µg/mL (≈ 0.127 µM) | 0.098 µg/mL (≈ 0.255 µM) | 0.195 µg/mL (≈ 0.507 µM) | 0.195 µg/mL (≈ 0.507 µM) | 3.12 µg/mL (≈ 8.13 µM) | 0.025 µg/mL (≈ 0.065 µM) | 0.391 µg/mL (≈ 1.02 µM) | 1.56 µg/mL (≈ 4.07 µM) | 1.56 µg/mL (≈ 4.07 µM) | 0.049 µg/mL (≈ 0.127 µM) | 0.098 µg/mL (≈ 0.255 µM) | 0.781 µg/mL (≈ 2.03 µM) | 0.195 µg/mL (≈ 0.507 µM) | 0.195 µg/mL (≈ 0.507 µM) | 3.12 µg/mL (≈ 8.13 µM) | 0.195 µg/mL (≈ 0.507 µM) | 0.195 µg/mL (≈ 0.507 µM) | 0.049 µg/mL (≈ 0.127 µM) | 
4 | CNC1CCC2=C1CN(c1c(F)cc3c(=O)c(C(=O)O)cn4c3c1OC[C@@H]4C)C2 (stereo partly drawn) [Example 17, 9-fluoro-10-[6-methylamino-3-azabicyclo [3,3,0]oct-1(5)ene-3-yl]-3-(S)-methyl-7-oxo-2,3-dihydro-7H-pyrido[1,2,3-de]-1,4-benzoxazine-6-carboxylic acid] | 12.5 µg/mL (≈ 31.3 µM) | 0.781 µg/mL (≈ 1.96 µM) | 0.195 µg/mL (≈ 0.488 µM) | 0.391 µg/mL (≈ 0.979 µM) | 0.195 µg/mL (≈ 0.488 µM) | 0.391 µg/mL (≈ 0.979 µM) | 12.5 µg/mL (≈ 31.3 µM) | 0.195 µg/mL (≈ 0.488 µM) | 0.391 µg/mL (≈ 0.979 µM) | 3.12 µg/mL (≈ 7.82 µM) | 3.12 µg/mL (≈ 7.82 µM) | 0.781 µg/mL (≈ 1.96 µM) | 0.391 µg/mL (≈ 0.979 µM) | 3.12 µg/mL (≈ 7.82 µM) | 0.781 µg/mL (≈ 1.96 µM) | 0.781 µg/mL (≈ 1.96 µM) | 6.25 µg/mL (≈ 15.6 µM) | 1.56 µg/mL (≈ 3.91 µM) | 0.391 µg/mL (≈ 0.979 µM) | 0.391 µg/mL (≈ 0.979 µM) | 
5 | CC1COc2c(N3CCN(C)CC3)c(F)cc3c(=O)c(C(=O)O)cn1c23 (stereo not shown) [Ofloxacin, reference compound] | 1.56 µg/mL (≈ 4.33 µM) | 0.391 µg/mL (≈ 1.08 µM) | 0.025 µg/mL (≈ 0.0692 µM) | 0.391 µg/mL (≈ 1.08 µM) | 1.56 µg/mL (≈ 4.33 µM) | 0.098 µg/mL (≈ 0.271 µM) | 1.56 µg/mL (≈ 4.33 µM) | 0.025 µg/mL (≈ 0.0692 µM) | 0.391 µg/mL (≈ 1.08 µM) | 0.781 µg/mL (≈ 2.16 µM) | 0.391 µg/mL (≈ 1.08 µM) | 0.098 µg/mL (≈ 0.271 µM) | 0.049 µg/mL (≈ 0.136 µM) | 3.12 µg/mL (≈ 8.65 µM) | 0.098 µg/mL (≈ 0.271 µM) | 0.391 µg/mL (≈ 1.08 µM) | 1.56 µg/mL (≈ 4.33 µM) | 0.098 µg/mL (≈ 0.271 µM) | 0.781 µg/mL (≈ 2.16 µM) | 0.049 µg/mL (≈ 0.136 µM) | ED50 (S. aureus 17740; [14]): > 200 mg/kg; ED50 (S. aureus 17740; [15]): 200 mg/kg; ED50 (P. mirabilis; [14]): 2.27 mg/kg; ED50 (P. mirabilis; [15]): 0.53 mg/kg
